The values below come from patent US20120252827A1, “COMBINATION OF THERAPY COMPRISING ZD6474 AND A TAXANE” (priority 2001, published 2012).

The test concerns GEO human colon cancer xenografts. The test can be described thus: GEO human colon cancer xenograft model: ZD6474 dosed intraperitoneally. Format: in vivo, BALB/c athymic (nu+/nu+) mice. Particulars: GEO xenografts s.c. in mice; for Average time (days) from day 28 to reach an average tumour volume of 2 cm^3 (approximately 10% of mouse body weight): paclitaxel 400 μg/mouse i.p., ZD6474 100 mg/kg/day i.p.; for Average tumour volume on day 28 after tumour cell injection: treatment from day 7, paclitaxel 400 μg/mouse i.p. days 7, 14, 21, 28, ZD6474 100 mg/kg/day i.p. days 7-11, 14-18, 21-25, 28-32. How it is done: a) Geo Human Colon Cancer Xenograft Model: ZD6474 Dosed Intraperitoneally
Female BALB/c athymic (nu+/nu+) mice 4-6 weeks of age were injected subcutaneously (s.c.) with GEO human colon cancer cells (10^7 cells resuspended in 200 μl Matrigel) on day 0. Treatment was initiated on day 7 after s.c. implantation of GEO cells when the average tumour volume was 0.25 (+0.05) cm^3. 10 mice per group were treated either with intraperitoneal (i.p.) paclitaxel (400 μg/mouse) on days 7, 14, 21 and 28, or with ZD6474 (100 mg/kg/day i.p. suspended in a 1% (v/v) solution of polyoxyethylene (20) sorbitan mono-oleate in deionised water) on days 7-11, 14-18, 21-25 and 28-32, or with a combination of both agents. In the case of combination treatments, where mice received both agents on the same day, paclitaxel was given 10-15 minutes before ZD6474. Tumour size was measured using the formula π/6×larger diameter×(smaller diameter)^2.
The average tumour volume on day 28 following tumour cell injection in control mice, 1.95 (+0.15) cm^3, was approximately 10% of nude mouse body weight and mice in this group were sacrificed at this time. […] Statistical evaluations of time to reach a tumour volume of 2 cm^3 has been done using the Mantel-Cox logrank test with the following results: ZD6474 (100 mg/kg) versus control (p=0.001); paclitaxel+ZD6474 (100 mg/kg) versus control (p=0.0001); paclitaxel+ZD6474 (100 mg/kg) versus paclitaxel (p=0.001); paclitaxel+ZD6474 (100 mg/kg) versus ZD6474 (100 mg/kg) (p=0.01).
Background: A xenograft is tissue or cells of one species grown in another, often human tumour cells in immunodeficient mice.

SMILES strings stand for the structures.

As for `COc1cc2c(Nc3ccc(Br)cc3F)ncnc2cc1OCC1CCN(C)CC1` [ZD6474, 4-(4-bromo-2-fluoroanilino)-6-methoxy-7-(1-methylpiperidin-4-ylmethoxy)quinazoline], the “Average time (days) from day 28 to reach an average tumour volume of 2 cm^3 (approximately 10% of mouse body weight)” value is on record as 29 (±2) days and the “Average tumour volume on day 28 after tumour cell injection” value was 0.1 (±0.05) cm^3.
For `CC(=O)O[C@H]1C(=O)[C@@]2(C)[C@H]([C@H](OC(=O)c3ccccc3)[C@]3(O)C[C@H](OC(=O)[C@H](O)[C@@H](NC(=O)c4ccccc4)c4ccccc4)C(C)=C1C3(C)C)[C@]1(OC(C)=O)CO[C@@H]1C[C@@H]2O` [Paclitaxel, paclitaxel] the same measures were 14 (±3) days and 0.95 (±0.1) cm^3.
